# In patent US20050209157A1, “Short bioactive peptides and methods for their use” (priority 2001, published 2005):
# Read-outs that look alike come from different tables or passages of the source. No end group written: not given here.
# Tests used:
# in vitro [1] = settings: human, WI38 normal lung fibroblast cells
# MCF7 = experiment: Anti-cancer assay, MTT, LD50; format: cell-based; settings: for MCF7 LD50: Table 41, lower part
# From the text: (§1) Numbers are LD50 values (μg/mL).
# [2] = Leukocyte (WBC) inhibition, toxicity LD50; format: cell-based, human; settings: male, human, human leukocytes (buffy coat cells, mostly PBMCs); Table 41, lower part
# Experimental: In vitro viability of human leukocyte cells in the presence of different peptides at different concentrations was determined by an Alamar Blue protocol. Alamar Blue (Promega, Madison, Wis.) is an indicator dye, formulated to measure quantitatively the proliferation and cytotoxicity of the cells. The dye consists of an oxidation-reduction (redox) indicator that yields a calorimetric change and a fluorescent signal in response to cellular metabolic activity.
# Assay protocol: Blood from a human was drawn and centrifuged at 1500 rpm for 15 minutes at room temperature. The buffy coat cells at the plasma-red blood cell interface were aspirated. Buffy coat cells (mainly lymphocyte cells) were then transferred into 15 ml centrifuge tubes containing 5 ml of RPMI-1640 medium+10% Fetal Bovine Serum (Gibco, Grand Island, N.Y.). Additional medium was added to the tubes to bring the volume up to 10 ml. The buffy coat suspension was then carefully layered on 5 ml of Histopaque (Sigma Chemical Co., St. Louis, Mo.) and centrifuged at 1500 rpm for 30 minutes at room temperature. The interface which is mostly PBMCs (peripheral mononuclear cells) was aspirated and transferred to a 15 ml conical centrifuge tube and, resuspended in 2 ml cold RPMI-1640 and brought up to 15 ml with cold RPMI-1640 medium. Cells were centrifuged at 1500 rpm for 10 minutes. The supernatant was then aspirated and discarded. The cell pellet was re-suspended in 1 ml of cold RPMI 1640 and brought up to 15 ml with RPMI medium. This step was repeated twice, except that in the last step, the cells were resuspended with 1 ml of cold RPMI-1640 medium and cell counts were performed with a hemocytometer according to the Sigma cell culture catalogue.
# Pokewood mitogen was used as a control along with positive and negative controls. Negative control cells were killed with 70% methanol. Positive (+) control cells were incubated in RPMI medium (untreated). […] of AlamarBlue was added to the cells, and readings were taken after 24 hours, 48 hours, 72 hours, and 96 hours using a fluorimeter (excitation 544/transmission 590 nm).
# In choosing a peptide for possible treatment of a given indication it is important to match the therapeutic activity and specificity of the peptide with its possible toxic properties.
# The protocols for WBC and WI38 stimulation have been discussed above. The RBC protocol follows Table 24.
# [3] = tested on: MCF7 line of breast cancer cells; settings: for MCF7 LD50: agent alone; for Active agent LD50 on MCF7 cells: Total conc.: peptide plus tamoxifen concentration at LD50; for Active agent LD50 on MCF7 cells: Peptide conc.: peptide with tamoxifen, peptide concentration at LD50; for Active agent LD50 on MCF7 cells: Tamox. conc.: tamoxifen concentration at LD50 (peptide with tamoxifen; tamoxifen alone in its own line)
# in vitro [4] = format: cell-based, human; settings: human, human red blood cells
# [5] = Solubility of peptides in sheep serum; format: physicochemical; settings: sheep serum, […], 70% serum
# P. aeruginosa H374 = format: cell-based, Pseudomonas aeruginosa; settings: for FIC Index: 0.5 or less = synergy
# Summary of the method: (§2)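 Synergy against efflux-mutant strains: two-fold dilutions of nalidixic acid or chloramphenicol tested with peptide held at ¼ of its MIC.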
# P. aeruginosa = format: cell-based, Pseudomonas aeruginosa; settings: P. aeruginosa H744; MIC of nalidixic acid with peptide at ¼ MIC
# Summary of the method: as §2
# P. aeruginosa H774 = format: cell-based, Pseudomonas aeruginosa; settings: P. aeruginosa H744; nalidixic acid + peptide at ¼ MIC; 0.5 or less = synergy
# Summary of the method: as §2
# Pseudomonas aeruginosa = experiment: Serum inactivation of peptides, serum MIC; format: cell-based; settings: for MIC 30 min treatment: sheep serum 37° C. 30 minutes; for MIC 2 hr treatment: sheep serum 37° C. 2 hours
# Experimental: Subsequently, the serum MICs against Pseudomonas aeruginosa were conducted to determine extent of serum inactivation of the peptides.
# HeLaS3 = experiment: Anti-cancer assay, MTT, LD50; format: cell-based; settings: 24 hours with peptide, cervical carcinoma
# From the text: as §1
# SW480 = experiment: Anti-cancer assay, MTT, LD50; format: cell-based; settings: SW480 colon adenocarcinoma line, 24 hours with peptide
# From the text: as §1
# PC3 = experiment: Anti-cancer assay, MTT, LD50; format: cell-based; settings: 24 hours with peptide, prostate adenocarcinoma
# From the text: as §1
# H1299 = experiment: Anti-cancer assay, MTT, LD50; format: cell-based; settings: 24 hours with peptide, lung large cell carcinoma
# From the text: as §1
# BMKC = experiment: Anti-cancer assay, MTT, LD50; format: cell-based; settings: BMKC cloned melanoma line, 24 hours with peptide
# From the text: as §1
# [6] = tested on: Pseudomonas aeruginosa ATCC 9027; experiment: Antimicrobial assay I, MIC by OD measurement; format: cell-based; settings: 37° C. for 24 hours, absorbance 620 nm
# [7] = tested on: Staphylococcus aureus ATCC 6538; experiment: Antimicrobial assay I, MIC by OD measurement; format: cell-based; settings: 37° C. for 24 hours, absorbance 620 nm
# [8] = tested on: clinical tobramycin resistant strain 960890198-3c; experiment: Activity against drug resistant strains; format: cell-based; settings: clinical tobramycin resistant strain; Table 47
# Experimental: (§3) Peptides were assayed for their activity against tobramycin sensitive and resistant strains.
# [9] = tested on: tobramycin sensitive (ts) Pseudomonas ATCC 27853; experiment: Activity against drug resistant strains; format: cell-based; settings: tobramycin sensitive strain; Table 47
# Experimental: as §3
# [10] = tested on: yeast (Saccharomyces cerevisiae); experiment: Antimicrobial assay I, yeast assay in RPMI 1640; format: cell-based; settings: RPMI 1640 media
# WI38 = settings: MTT, 24 hours with peptide; normal fibroblast line
# [11] = WI38 LD50, Table 41, lower part
# [12] = pH 7, Table 41, lower part, read-out: RBC LD50
substance,measurement,setting,value
FAKKLAKKLKKLAKKLAK-NH2 [164 (69)],CC50 at 24 h,in vitro [1]; [11],60 µg/mL
same,MCF7 LD50,MCF7,79 µg/mL
same,CC50,[2],140 µg/mL
same,MCF7 LD50,[3],79 µg/mL
same,Active agent LD50 on MCF7 cells: Total conc.,[3],7.1 µg/mL
same,Active agent LD50 on MCF7 cells: Peptide conc.,[3],2.5 µg/mL
same,Active agent LD50 on MCF7 cells: Tamox. conc.,[3],4.6 µg/mL
same,HC50 at 1 h,in vitro [4]; [12],900 µg/mL
FAKKLAKKLKKLAKKLAK-NH2 [P69],Solubility,[5],Precipitated
same,MIC Cm-comb.,P. aeruginosa H374; MIC of chloramphenicol with peptide at ¼ MIC,8 µg/mL
same,MIC Nal-comb.,P. aeruginosa H374; MIC of nalidixic acid with peptide at ¼ MIC,2500 µg/mL
same,FIC Index,P. aeruginosa H374; chloramphenicol + peptide at ¼ MIC,0.75
same,FIC Index,"P. aeruginosa H374; nalidixic acid + peptide at ¼ MIC, FIC=0.25+MIC comb/MIC alone",0.75
same,MIC Nal-comb.,P. aeruginosa,312 µg/mL
same,FIC Index,P. aeruginosa H774,0.75
same,MIC 30 min treatment,Pseudomonas aeruginosa; first of two columns,20 µg/mL
same,MIC 30 min treatment,Pseudomonas aeruginosa; second of two columns,20 µg/mL
same,MIC 2 hr treatment,Pseudomonas aeruginosa; first of two columns,20 µg/mL
same,MIC 2 hr treatment,Pseudomonas aeruginosa; second of two columns,20 µg/mL
FALALKALKKAL-NH2 [106 (144)],CC50 at 24 h,in vitro [1]; [11],740 µg/mL
same,MCF7 LD50,MCF7,310 µg/mL
same,CC50,[2],320 µg/mL
same,MCF7 LD50,[3],310 µg/mL
same,Active agent LD50 on MCF7 cells: Total conc.,[3],42.7 µg/mL
same,Active agent LD50 on MCF7 cells: Peptide conc.,[3],35 µg/mL
same,Active agent LD50 on MCF7 cells: Tamox. conc.,[3],7.7 µg/mL
same,HC50 at 1 h,in vitro [4]; [12],600 µg/mL
WALAL-NH2 [145 (184)],CC50 at 24 h,in vitro [1]; [11],1000 µg/mL
same,MCF7 LD50,MCF7,240 µg/mL
same,CC50,[2],410 µg/mL
same,MCF7 LD50,[3],240 µg/mL
same,Active agent LD50 on MCF7 cells: Total conc.,[3],14 µg/mL
same,Active agent LD50 on MCF7 cells: Peptide conc.,[3],10 µg/mL
same,Active agent LD50 on MCF7 cells: Tamox. conc.,[3],4 µg/mL
same,HC50 at 1 h,in vitro [4]; [12],850 µg/mL
FAKALAKLAKKLL-NH2 [P92],CC50 at 24 h,"in vitro [1]; LD50 WI38, WI38 normal lung fibroblast line, MTT, 24 hours with peptide",43 µg/mL
same,HeLaS3 LD50,HeLaS3,670 µg/mL
same,LD50 SW480,SW480,51 µg/mL
same,PC3 LD50,PC3,83 µg/mL
same,LD50 MCF7,"MCF7; MCF7 breast adenocarcinoma line, MTT, 24 hours with peptide",23 µg/mL
same,H1299 LD50,H1299,25 µg/mL
same,LD50 BMKC,BMKC,46 µg/mL
same,paerug9027 (MIC),[6],5 µg/mL
same,staph6538 (MIC),[7],5 µg/mL
same,activity against tr Pseudomonas 960890198-3c,[8],50
same,activity against ts Pseudomonas 27853,[9],63
same,yeast (MIC or MFC),[10],50 µg/mL
same,HC50 at 1 h,"in vitro [4]; pH 7, hemolytic assay, concentration at 50% hemolysis, 1 hour at 37° C., read-out: LD50",300 µg/mL
same,WI38 LD50,WI38,43 µg/mL
